Results from patent US5053006A, “Method for the permanent occlusion of arteries” (priority 1990, dated 1991).

How the values were obtained:
femoral artery = test: Argon laser photothrombotic occlusion of femoral artery (Example 1); assay type: in vivo, rat (male Wistar)
Source text: Male Wistar rats, each weighing 280 to 330 gm, were anesthetized with 1.5% halothane and maintained on a 70:30 mixture of nitrous oxide and oxygen delivered by a closely fitting Mylar face mask (Watson et al., J. Neurosurg., 66:748-754, 1987, the disclosure of which is hereby incorporated by reference and relied upon). After separation of the temporal musculature, the middle cerebral artery was exposed via a small subtemporal craniectomy produced by a high-speed drill under an operating microscope; the dura was left intact. The common carotid arteries were exposed bilaterally by a midline incision extending from the mental process to the sternal notch; the sternocleidomastoid muscle was then retracted laterally to expose the underlying artery. Bleeding from the operative site was controlled with pressure and Gelfoam. The animal was then prepared for irradiation by filling the surgical cavity with saline, just submerging the exposed blood vessel. The saline solution was kept clear by frequent suction and irrigation. The femoral arteries were exposed by bilateral inguinal incisions and were prepared for irradiation in a fashion similar to that described above.
As assessed by observation of rose bengal fluorescence, thrombus development in the common carotid or femoral arteries followed a course similar to that observed in the middle cerebral artery, except that the thrombus appeared as a […] as viewed through the blood vessel wall. Intense scattering of the incident laser light was also noted at about the time that arterial pulsations at the level of irradiation ceased.
Ultrastructural studies were carried out at either 30 minutes or 7 days following irradiation. Animals were perfused transcardially with 0.9% sodium chloride solution followed by 2% paraformaldehyde and 2.5% glutaraldehyde in a 0.1 M sodium phosphate buffer. Perfusion pressure was monitored throughout the procedure and was maintained at 100 mm Hg. After perfusion fixation, the femoral and common carotid arteries were isolated and placed in fixative for an additional 2 hours. To isolate the middle cerebral artery, the brain was first removed from the cranial vault and placed in fixative for a 2-hour period. Next, the whole brain was placed in phosphate-buffered 1% osmium tetroxide for 2 minutes.

rabbit ocular mucin = test: Immunofluorescence of mucin expression with anti-ROM antibody; assay type: in vivo
Protocol: The epithelial phenotype of the control and treated corneas was then studied by impression cytology (Tseng, Ophthalmology, 92:728-33, 1985) and routine histology using hematoxylin and PAS. In addition, immunofluorescent stainings of the frozen sections using a previously developed anti-rabbit ocular mucin monoclonal antibody [anti-ROM] was performed to study mucin expression.
To further confirm the transition of epithelial differentiation, a monoclonal antibody against rabbit ocular mucin [anti-ROM] was used to examine the expression of mucin, the major product of goblet cells.

## O=C([O-])c1c(Cl)c(Cl)c(Cl)c(Cl)c1-c1c2cc(I)c(=O)c(I)c-2oc2c(I)c([O-])c(I)cc12.[Na+].[Na+] [rose bengal]
Femoral artery; 40 mg/kg i.v., 514.5 nm argon laser
  complete occlusion, irradiation time: ≤ 3 min
Femoral artery; 514.5 nm argon laser
  energy fluence at occlusion: about 35 kJ/sq cm
  total energy deposited at occlusion: 140 to 180 joules (J)
Femoral artery; one-half the standard dose (20 mg/kg), two rats
  occlusion, irradiation time: ≤ 4 min
Rabbit ocular mucin; four weeks
  mucin in epithelium of occluded corneas: complete absence
Rabbit ocular mucin; with time after vessel occlusion
  expression of mucin antigen: diminish gradually with time
